Measured values taken from ChEMBL document CHEMBL6078668, “Synthesis and biological evaluation of lappaconitine analogues as potential anti-neuroinflammatory agents by side chain modification and scaffold hopping strategy” (Bioorg Med Chem, 2025).

What was measured:
[1] = Cytotoxicity against C57BL/6 mouse BV-2 cells assessed as survival rate at 30 uM incubated for 24 hrs by MTT assay relative to control; format: toxicity, cell-based; conditions: read-out: Survival
BV-2 = test: Anti-neuroinflammatory activity against LPS-stimulated C57BL/6 mouse BV-2 cells assessed as inhibition of NO release at 30 uM preincubated with compound for 4 hrs followed by LPS addition and measured after 24 hrs by Griess reagent based assay relative to control; format: functional; conditions: C57BL/6, BV-2, time 28 hrs

CCN1C[C@]2(OC(=O)c3ccccc3NC(=O)c3ccccc3F)CC[C@H](OC)[C@]34C1[C@@H](C[C@H]23)[C@@]1(O)C[C@H](OC)[C@H]2C[C@@H]4[C@]1(O)[C@H]2OC
viability at 24 h, 30 µM [1]: 105% | inhibition at 30 µM (BV-2): 17.3%

CCN1C[C@]2(OC(=O)c3ccccc3NC(=O)S(=O)(=O)c3ccc(C(=O)OC)cc3)CC[C@H](OC)[C@]34C1[C@@H](C[C@H]23)[C@@]1(O)C[C@H](OC)[C@H]2C[C@@H]4[C@]1(O)[C@H]2OC
viability at 24 h, 30 µM [1]: 104% | inhibition at 30 µM (BV-2): 15.7%

CCN1C[C@]2(OC(=O)c3ccccc3NC(=O)C3CCOC3)CC[C@H](OC)[C@]34C1[C@@H](C[C@H]23)[C@@]1(O)C[C@H](OC)[C@H]2C[C@@H]4[C@]1(O)[C@H]2OC (some centres not stated)
viability at 24 h, 30 µM [1]: 109% | inhibition at 30 µM (BV-2): 32.4%

CCN1C[C@]2(OC(=O)c3ccccc3NC(=O)c3cccc(C)c3)CC[C@H](OC)[C@]34C1[C@@H](C[C@H]23)[C@@]1(O)C[C@H](OC)[C@H]2C[C@@H]4[C@]1(O)[C@H]2OC
viability at 24 h, 30 µM [1]: 112% | inhibition at 30 µM (BV-2): 15.6%

CCN1C[C@]2(OC(=O)c3ccccc3NC(=O)S(=O)(=O)c3cc(F)ccc3F)CC[C@H](OC)[C@]34C1[C@@H](C[C@H]23)[C@@]1(O)C[C@H](OC)[C@H]2C[C@@H]4[C@]1(O)[C@H]2OC
viability at 24 h, 30 µM [1]: 105% | inhibition at 30 µM (BV-2): 53.7%

CCN1C[C@]2(OC(=O)c3ccccc3NC(=O)S(=O)(=O)c3cccc([N+](=O)[O-])c3)CC[C@H](OC)[C@]34C1[C@@H](C[C@H]23)[C@@]1(O)C[C@H](OC)[C@H]2C[C@@H]4[C@]1(O)[C@H]2OC
viability at 24 h, 30 µM [1]: 106% | inhibition at 30 µM (BV-2): 11.7%

CCN1C[C@]2(OC(=O)c3ccccc3NC(=O)c3ccccc3Cl)CC[C@H](OC)[C@]34C1[C@@H](C[C@H]23)[C@@]1(O)C[C@H](OC)[C@H]2C[C@@H]4[C@]1(O)[C@H]2OC
viability at 24 h, 30 µM [1]: 104% | inhibition at 30 µM (BV-2): 12.8%

CCN1C[C@]2(OC(=O)c3ccccc3NC(=O)S(=O)(=O)c3ccc(Cl)nc3)CC[C@H](OC)[C@]34C1[C@@H](C[C@H]23)[C@@]1(O)C[C@H](OC)[C@H]2C[C@@H]4[C@]1(O)[C@H]2OC
viability at 24 h, 30 µM [1]: 104% | inhibition at 30 µM (BV-2): 33.5%

CCCCOC(=O)c1ccccc1NC(=O)c1ccc(CC)cc1
viability at 24 h, 30 µM [1]: 103% | inhibition at 30 µM (BV-2): 30.4%

CCN1C[C@]2(OC(=O)c3ccccc3NC(=O)S(=O)(=O)c3ccc(NC(C)=O)cc3)CC[C@H](OC)[C@]34C1[C@@H](C[C@H]23)[C@@]1(O)C[C@H](OC)[C@H]2C[C@@H]4[C@]1(O)[C@H]2OC
viability at 24 h, 30 µM [1]: 104% | inhibition at 30 µM (BV-2): 10.4%

O=C(O)c1ccccc1NS(=O)(=O)c1cccc(F)c1
viability at 24 h, 30 µM [1]: 100% | inhibition at 30 µM (BV-2): 10.8%

COC(=O)c1ccccc1NC(=O)c1ccc(Cl)s1
viability at 24 h, 30 µM [1]: 93.5% | inhibition at 30 µM (BV-2): 48.6%

CCN1C[C@]2(OC(=O)c3ccccc3NC(=O)S(=O)(=O)c3cccnc3Cl)CC[C@H](OC)[C@]34C1[C@@H](C[C@H]23)[C@@]1(O)C[C@H](OC)[C@H]2C[C@@H]4[C@]1(O)[C@H]2OC
viability at 24 h, 30 µM [1]: 106% | inhibition at 30 µM (BV-2): 56.5%

CCN1C[C@]2(OC(=O)c3ccccc3NC(=O)c3cccc(Cl)c3)CC[C@H](OC)[C@]34C1[C@@H](C[C@H]23)[C@@]1(O)C[C@H](OC)[C@H]2C[C@@H]4[C@]1(O)[C@H]2OC
viability at 24 h, 30 µM [1]: 104% | inhibition at 30 µM (BV-2): 12.9%

CCN1C[C@]2(OC(=O)c3ccccc3NC(=O)C3CCCC3)CC[C@H](OC)[C@]34C1[C@@H](C[C@H]23)[C@@]1(O)C[C@H](OC)[C@H]2C[C@@H]4[C@]1(O)[C@H]2OC
viability at 24 h, 30 µM [1]: 107% | inhibition at 30 µM (BV-2): 37.9%

CCN1C[C@]2(OC(=O)c3ccccc3NC(=O)S(=O)(=O)c3cc(OC)ccc3OC)CC[C@H](OC)[C@]34C1[C@@H](C[C@H]23)[C@@]1(O)C[C@H](OC)[C@H]2C[C@@H]4[C@]1(O)[C@H]2OC
viability at 24 h, 30 µM [1]: 102% | inhibition at 30 µM (BV-2): 26.3%
